Measured values taken from paper PMC9775061 (2022).

Experiments:
[1] = system: complementary (CAG)3/(CUG)3 RNA duplex (rGG-(CAG)3-CC and rGG-(CUG)3-CC) (RNA, duplex) GGCAGCAGCAGCC/GGCUGCUGCUGCC; assay: fluorescence turn-on (λex 300 nm); details: 300 mM NaCl; 20 mM MOPS pH 7.0; 10 µM DB-TPE, 1 eq. duplex; much weaker fluorescence, likely non-specific electrostatic
[2] = system: rGG-(CAG)6-CC (RNA, repeat) GGCAGCAGCAGCAGCAGCAGCC; assay: fluorescence titration (turn-on, 463 nm, λex 300 nm); details: 300 mM NaCl; 20 mM MOPS pH 7.0; 10 µM DB-TPE; apparent; 1:1 model

binding [1]: weak
Kd [2]: 2000 nM
SMILES: CN(C)CCCNC(=N)c1ccc(C(=N)NCCCN(C)Cc2cn(Cc3ccc(C(=C(c4ccccc4)c4ccccc4)c4ccccc4)cc3)nn2)cc1
